Laboratory results from patent publication US6734205B2, “Substituted guanidine derivatives” (Sumitomo Pharmaceuticals Company Limited, priority 1999, dated 2004).
Structures can show the parent of a compound that is named as a salt.

SMILES	melting point
Cn1c(C(=O)NC(=N)N)cc2c(Cl)cc(OCP(=O)(O)O)cc21 [Example 47, [[2-[[[Amino(imino)methyl]amino]carbonyl]-4-chloro-1-methyl-1H-indol-6-yl]oxy]methylphosphonic Acid]	263 °C (dec.)
N=C(N)NC(=O)c1cc2c(Cl)cccc2n1CCCS(=O)(=O)O [Example 27, 3-[2-[[[amino(imino)methyl]-amino]carbonyl]-4-chloro-1H-indol-1-yl]-1-propanesulfonic Acid]	281 °C (dec.)
Cc1cc(OCP(=O)(O)O)cc2c1cc(C(=O)NC(=N)N)n2C [Example 49, [[2-[[[Amino(imino)methyl]amino]carbonyl]-1,4-dimethyl-1H-indol-6-yl]oxy]methylphosphonic Acid]	≥ 300 °C
CS(=O)(=O)O.Cn1c(C(=O)NC(=N)N)cc2ccc(O[C@@H]3O[C@H](C(=O)O)[C@@H](O)[C@H](O)[C@H]3O)cc21 [Example 8, [2-[[[amino(imino)methyl]amino]-carbonyl]-1-methyl-1H-indol-6-yl] β-D-glucopyranosideuronic Acid Methanesulfonate]	170 to 171 °C
Cn1c(C(=O)NC(=N)N)cc2c(C(F)(F)F)ccc(OCP(=O)(O)O)c21 [Example 46, [[2-[[[Amino(imino)methyl]amino]carbonyl]-1-methyl-4-(trifluoromethyl)-1H-indol-7-yl]oxy]methylphosphonic Acid]	260 °C (dec.)
Cn1c(C(=O)NC(=N)N)cc2c(Cl)ccc(CCP(=O)(O)O)c21 [Example 53, 2-[2-[[[Amino(imino)methyl]amino]carbonyl]-4-chloro-1-methyl-1H-indol-7-yl]ethylphosphonic Acid]	256 °C (dec.)
Cn1c(C(=O)NC(=N)N)cc2c(C(F)(F)F)cc(OS(=O)(=O)O)cc21 (as salt: sulfate) [Example 12, 2-[[[Amino(imino)methyl]amino]carbonyl]-1-methyl-4-(trifluoromethyl)-1H-indol-6-yl Hydrogen Sulfate]	300 °C (dec.)
Cc1cc(OCCCS(=O)(=O)O)cc2c1cc(C(=O)NC(=N)N)n2C [Example 35, 3-[[2-[[[Amino(imino)methyl]amino]carbonyl]-1,4-dimethyl-1H-indol-6-yl]oxy]-1-propanesulfonic Acid]	290 °C (dec.)
Cn1c(C(=O)NC(=N)N)cc2c(C(F)(F)F)ccc(CCS(=O)(=O)O)c21 [Example 40, 2-[2-[[[Amino(imino)methyl]amino]carbonyl]-1-methyl-4-(trifluoromethyl)-1H-indol-7-yl]ethanesulfonic Acid]	≥ 300 °C
Cc1ccc(OCC(=O)O)c2c1cc(C(=O)NC(=N)N)n2C [Example 26, [[2-[[[Amino(imino)methyl]amino]carbonyl]-1,4-dimethyl-1H-indol-7-yl]oxy]acetic Acid]	248 to 252 °C (dec.)
Cn1c(C(=O)NC(=N)N)cc2c(Cl)cc(OS(=O)(=O)O)cc21 (as salt: sulfate) [Example 11, 2-[[[Amino(imino)methyl]amino]carbonyl]-4-chloro-1-methyl-1H-indol-6-yl Hydrogen Sulfate]	298 °C (dec.)
Cn1c(C(=O)NC(=N)N)cc2c(C(F)(F)F)ccc(OCC(=O)O)c21 [Example 22, [[2-[[[Amino(imino)methyl]amino]carbonyl]-1-methyl-4-(trifluoromethyl)-1H-indol-7-yl]oxy]acetic Acid]	224 to 233 °C (dec.)
CS(=O)(=O)O.Cn1c(C(=O)NC(=N)N)cc2c(C(F)(F)F)ccc(P(=O)(O)O)c21	258 °C (dec.)
Cc1ccc(OS(=O)(=O)O)c2c1cc(C(=O)NC(=N)N)n2C (as salt: sulfate) [Example 4, 2-[[[amino(imino)methyl]amino]-carbonyl]-1,4-dimethyl-1H-indol-7-yl Hydrogen Sulfate]	> 315 °C (dec.)
Cn1c(C(=O)NC(=N)N)cc2c(C(F)(F)F)cc(OCC(=O)O)cc21 [Example 21, [[2-[[[amino(imino)methyl]-amino]carbonyl]-1-methyl-4-(trifluoromethyl)-1H-indol-6-yl]oxy]acetic Acid]	250 to 266 °C (dec.)
Cc1ccc(OCP(=O)(O)O)c2c1cc(C(=O)NC(=N)N)n2C [Example 50, [[2-[[[Amino(imino)methyl]amino]carbonyl]-1,4-dimethyl-1H-indol-7-yl]oxy]methylphosphonic Acid]	270 °C (dec.)
Cn1c(C(=O)NC(=N)N)cc2c(C(F)(F)F)ccc(CP(=O)(O)O)c21 [Example 16, [2-[[[Amino(imino)methyl]amino]carbonyl]-1-methyl-4-(trifluoromethyl)-1H-indol-7-yl]methylphosphonic Acid]	249 to 265 °C (dec.)
Cn1c(C(=O)NC(=N)N)cc2c(Cl)ccc(OCP(=O)(O)O)c21 [Example 48, [[2-[[[Amino(imino)methyl]amino]carbonyl]-4-chloro-1-methyl-1H-indol-7-yl]oxy]methylphosphonic Acid]	247 °C

Other lines, results leading:

melting point	SMILES
267 to 268 °C (dec.)	Cc1c(OS(=O)(=O)O)ccc2c1cc(C(=O)NC(=N)N)n2C (as salt: sulfate) [Example 1, 2-[[[amino(imino)methyl]amino]-carbonyl]-1,4-dimethyl-1H-indol-5-yl Hydrogen Sulfate]
219 °C (dec.)	CS(=O)(=O)O.Cn1c(C(=O)NC(=N)N)cc2cc(O[C@@H]3O[C@H](C(=O)O)[C@@H](O)[C@H](O)[C@H]3O)ccc21 [Example 9, [2-[[[Amino(imino)methyl]amino]carbonyl]-1-methyl-1H-indol-5-yl] β-D-glucopyranosideuronic Acid Methanesulfonate]
> 300 °C	N=C(N)NC(=O)c1cc2c(C(F)(F)F)cccc2n1CCCS(=O)(=O)O [Example 28, 3-[2-[[[Amino(imino)methyl]amino]carbonyl]-4-(trifluoromethyl)-1H-indol-1-yl]-1-propanesulfonic Acid]
279 to 280 °C (dec.)	Cn1c(C(=O)NC(=N)N)cc2cccc(OS(=O)(=O)O)c21 (as salt: sulfate) [Example 3, 2-[[[Amino(imino)methyl]amino]carbonyl]-1-methyl-1H-indol-7-yl Hydrogen Sulfate]
255 °C (dec.)	Cc1cc(CCP(=O)(O)O)cc2c1cc(C(=O)NC(=N)N)n2C [Example 54, 2-[2-[[[Amino(imino)methyl]amino]carbonyl]-1,4-dimethyl-1H-indol-6-yl]ethylphosphonic Acid]
239 to 280 °C (dec.)	Cc1ccc(CP(=O)(O)O)c2c1cc(C(=O)NC(=N)N)n2C [Example 20, [2-[[[Amino(imino)methyl]amino]carbonyl]-1,4-dimethyl-1H-indol-7-yl]methylphosphonic Acid]
298 °C (dec.)	Cn1c(C(=O)NC(=N)N)cc2c(C(F)(F)F)ccc(OS(=O)(=O)O)c21 (as salt: sulfate) [Example 13, 2-[[[Amino(imino)methyl]amino]carbonyl]-1-methyl-4-(trifluoromethyl)-1H-indol-7-yl Hydrogen Sulfate]
277 °C (dec.)	Cn1c(C(=O)NC(=N)N)cc2c(C(F)(F)F)cc(CCP(=O)(O)O)cc21 [Example 51, 2-[2-[[[amino(imino)methyl]-amino]carbonyl]-1-methyl-4-(trifluoromethyl)-1H-indol-6-yl]ethylphosphonic Acid]
286 °C (dec.)	CS(=O)(=O)O.Cn1c(C(=O)NC(=N)N)cc2c(C(F)(F)F)cc(P(=O)(O)O)cc21
≥ 278 °C (dec.)	Cc1ccc(OCCCS(=O)(=O)O)c2c1cc(C(=O)NC(=N)N)n2C [Example 36, 3-[[2-[[[Amino(imino)methyl]amino]carbonyl]-1,4-dimethyl-1H-indol-7-yl]oxy]-1-propanesulfonic Acid]
298 °C (dec.)	Cc1cccc2c1cc(C(=O)NC(=N)N)n2CCCS(=O)(=O)O [Example 29, 3-[2-[[[Amino(imino)methyl]amino]carbonyl]-4-methyl-1H-indol-1-yl]-1-propanesulfonic Acid]
275 °C (dec.)	Cn1c(C(=O)NC(=N)N)cc2c(C(F)(F)F)ccc(OCCS(=O)(=O)O)c21 [Example 31, 2-[[2-[[[Amino(imino)methyl]amino]carbonyl]-1-methyl-4-(trifluoromethyl)-1H-indol-7-yl]oxy]-ethanesulfonic Acid]
≥ 300 °C	Cn1c(C(=O)NC(=N)N)cc2c(C(F)(F)F)ccc(CS(=O)(=O)O)c21 [Example 38, [2-[[[Amino(imino)methyl]amino]carbonyl]-1-methyl-4-(trifluoromethyl)-1H-indol-7-yl]methanesulfonic Acid]
≥ 300 °C	Cn1c(C(=O)NC(=N)N)cc2c(Cl)cc(CCS(=O)(=O)O)cc21 [Example 41, 2-[2-[[[Amino(imino)methyl]amino]carbonyl]-4-chloro-1-methyl-1H-indol-6-yl]ethanesulfonic Acid]
280 to 281 °C (dec.)	Cn1c(C(=O)NC(=N)N)cc2cc(OS(=O)(=O)O)ccc21 (as salt: sulfate) [Example 6, 2-[[[Amino(imino)methyl]amino]carbonyl]-1-methyl-1H-indol-5-yl Hydrogen Sulfate]
234 °C (dec.)	Br.Cn1c(C(=O)NC(=N)N)cc2c(C(F)(F)F)ccc(CCP(=O)(O)O)c21
≥ 272 °C (dec.)	Cn1c(C(=O)NC(=N)N)cc2c(C(F)(F)F)ccc(OCCCS(=O)(=O)O)c21 [Example 33, 3-[[2-[[[Amino(imino)methyl]amino]carbonyl]-1-methyl-4-(trifluoromethyl)-1H-indol-7-yl]oxy]-1-propanesulfonic Acid]
292 °C (dec.)	Cn1c(C(=O)NC(=N)N)cc2c(C(F)(F)F)cc(OCP(=O)(O)O)cc21 [Example 45, [[2-[[[amino(imino)methyl]-amino]carbonyl]-1-methyl-4-(trifluoromethyl)-1H-indol-6-yl]oxy]-methylphosphonic Acid]
273 to 284 °C (dec.)	Cn1c(C(=O)NC(=N)N)cc2c(Cl)ccc(CP(=O)(O)O)c21 [Example 18, [2-[[[Amino(imino)methyl]amino]carbonyl]-4-chloro-1-methyl-1H-indol-7-yl]methylphosphonic Acid]
